Data on 1 compound can be found in patent US5866775A, “Glyphosate-tolerant 5-enolpyruvyl-3-phosphoshikimate synthases” (Monsanto Company, priority 1990, dated 1999).

The subject of experiment [1] is non-transformed canola plants. Kind of experiment: Glyphosate spray of canola, non-transformed controls. Conditions: 0.56 kg/ha spray. It is filed as in vivo. The source says:
A total of 15 transgenic canola plants containing the pMON10074 construct, and 2 non-transformed controls were sprayed with glyphosate at a commercial rate of 0.56 kg/ha. The effect of glyphosate on both the vegetative and reproductive performance of the sprayed plants was scored at 7, 14 and 28 days after spray. The effect of glyphosate was translated to a numerical scale of 0-10, where 0 represents total kill and 10 represents the normal, unsprayed plant. The non-transformed controls had vegetative scores of 2 after 14 days and reproductive scores of 0 after 28 days.

Experiment [2] concerns the target T1, pMON8252 encoded petunia EPSPS variant, glycine (101) to alanine and alanine (192) to threonine (Petunia hybrida, UniProt P11043, A264T/G173A).
T1 construct: alanine 192 in the mature petunia EPSP synthase; made in house; host or cells: E. coli SR481 (aroA-)
Kind of experiment: EPSP synthase kinetic constants (appKm PEP, appKi glyphosate). The experiment is classed as biochemical. The protocol: The balance of the #742 preculture (~750 μl) was used to inoculate 2 ml of 2XYT medium containing 50 μg/ml carbenicillin and was shaken overnight at 37° C. to reach saturation. Plasmid DNA was isolated from an aliquot of the saturated culture using an alkaline lysis procedure. The plasmid was designated pMON8252. An aliquot of the pMON8252 plasmid was used to transform the E. coli host SR481 (described above) and reselected on MOPS medium containing 10 mM glyphosate and 50 μg/ml carbenicillin. A single glyphosate resistant colony of pMON8252 was picked off the selection plate and used to inoculate 3 ml of 2XY1 bacterial medium containing 50 μg/ml carbenicillin. The culture was then aerated on a rotating wheel at 37° C. until saturated and then used to inoculate a larger 250 ml culture. The large culture was grown to saturation by continuously shaking it overnight at 37° C. in a water bath. The bacterial cells were lysed and the extracts were assayed for EPSPS activity.
Specifically, the bacterial cell paste was washed twice with 0.9% saline, suspended in buffer (100 mM Tris-HCl, 5 mM benzamidine HCl) and passed twice through a French Pressure Cell at 1000 psi. The cell extract was separated from the cells by centrifuging at 15,000×gravity for 10 minutes at 5° C. It was desalted using Sephadex G-50 (Pharmacia, Piscataway, N.J.). The desalted extract was assayed for EPSP synthase activity as follows.
Kinetic constants (appKm PEP and appKi glyphosate) were determined for EPSP synthase as described below. Substrate kinetic parameters were determined at pH 7.9 in 50 mM HEPES (N-[2-hydroxyethyl]piperazine-N'-[2-ethanesulfonic acid]) buffer in the presence of 2 mM S3P and varying amounts of ^14 C-PEP (10 μM-400 μM), for 2.0 minutes at 25° C. Reactions were quenched with 100 mM NaAcetate in ethanol, pH 4.5, centrifuged and analyzed for product EPSP formation by HPLC with flow radioactivity detection. HPLC conditions were 0.35M KPi, pH 6.5, on a Synchropak AX100 column at 1.0 ml/minute.

For experiment [3], the system named is petunia plants transformed with pMON546 (CaMV35S/wild-type petunia EPSP synthase). Kind of experiment: Plant response to glyphosate spraying, chimeric EPSPS plants. The note with it: 0.8 #/acre acid equivalent (0.897 kg/hectare), isopropylamine salt, spray. The experiment is classed as in vivo. From the text:
Transformed petunia plants were produced by regeneration from the above-described transformed leaf disks by the procedure described by Horsch, et al. (1985). The transformed plants obtained contained the pMON546 vector, described hereinabove, which contains the CaMV35S promoter fused to the wild-type petunia EPSP synthase gene.
(§1) Four individual representative transgenic seedlings were selected, grown and tested in the testing procedure described below, along with four individual non-transformed (wild-type) petunia seedlings.
(§2) The plants were grown in a growth medium in a growth chamber at 26° C. with 12 hours of light per day. The plants were fertilized weekly with a soluble fertilizer and watered as needed. The plants were sprayed at a uniform and reproducible delivery rate of herbicide by use of an automated track sprayer. The glyphosate solution used was measured as pounds of glyphosate acid equivalents per acre, mixed as the glyphosate isopropylamine salt, with an ionic surfactant.
Four individual wild-type (non-transformed) petunia plants were selected for use as control plants. Four individual transformed plants containing the pMON546 vector were selected by kanamycin resistance as described by Horsch, et al. (1985). […]

The test system of experiment [4] is wildtype petunia plant or transformed with control vector (pMON505). Kind of experiment: Plant response to glyphosate spraying, control plants. The experiment is classed as in vivo. Conditions: 0.8 #/acre acid equivalent (0.897 kg/hectare), isopropylamine salt, spray. The protocol: as §1, §2
Four individual wild-type (non-transformed) petunia plants were selected for use as control plants. Four individual transformed plants containing the pMON546 vector were selected by kanamycin resistance as described by Horsch, et al. (1985).
The control plants and the transformed plants were sprayed with the isopropylamine salt of glyphosate at the application level listed in Table 2 below; the experimental results obtained are also summarized in Table 2.

The target of experiment [5] is T2, EPSPS in crude extracts of tobacco plants transformed with pMON10079 (Petunia hybrida, UniProt P11043, A264T/G173A).
T2 construct: an alanine to threonine substitution at position 192 of the mature EPSPS enzyme has also been introduced into other plant species such as tobacco; expressed in transfected cells; host or cells: transgenic tobacco plants (pMON10079), crude plant extracts
In words: EPSPS assay of crude plant extracts in the presence of glyphosate. It is filed as biochemical. Conditions: 1.0 mM glyphosate; eleven transformed plants. From the text: Thus, the petunia EPSPS variant with the glycine to alanine substitution at position 101 and the alanine to threonine substitution at position 192 does confer glyphosate tolerance to transformed plants.

The subject of experiment [6] is tobacco plants transformed with glyphosate-tolerant petunia EPSP synthase (pMON567). In words: Relative effect of glyphosate spray, GT plants. It is filed as in vivo, Nicotiana tobacam CV H425. The source says:
A culture of A. tumefaciens cells containing pMON567/pGV3111-SE was co-cultured with leaf disks taken from tobacco plants (Nicotiana tobacam CV H425) as described by Horsch (1985). The Agrobacterium cells inserted the variant EPSP synthase gene into the chromosomes of the plant cells. Plant cells resistant to kanamycin were selected and regenerated into differentiated plants by the procedure of Horsch (1985).
Progeny of these plants were propagated and grown to a rosette diameter of about 10 cm corresponding to a plant age of about four weeks. The plants were sprayed with glyphosate at levels corresponding to 0.4, 2.0 and 3.6 pounds acid equivalent/acre. The effect of glyphosate on the transformed plants were scored at 7, 14 and 28 days. The effect was translated to a numerical scale of 0-10 in which 0 represents total kill and 10 is the normal, unsprayed plant. […] The values represent the best transformant for both wild-type EPSP synthase and glypho sate-tolerant EPSP synthase genes.

Each structure is given as a SMILES string.

T1 sequence (P11043 73-516 G173A/A264T): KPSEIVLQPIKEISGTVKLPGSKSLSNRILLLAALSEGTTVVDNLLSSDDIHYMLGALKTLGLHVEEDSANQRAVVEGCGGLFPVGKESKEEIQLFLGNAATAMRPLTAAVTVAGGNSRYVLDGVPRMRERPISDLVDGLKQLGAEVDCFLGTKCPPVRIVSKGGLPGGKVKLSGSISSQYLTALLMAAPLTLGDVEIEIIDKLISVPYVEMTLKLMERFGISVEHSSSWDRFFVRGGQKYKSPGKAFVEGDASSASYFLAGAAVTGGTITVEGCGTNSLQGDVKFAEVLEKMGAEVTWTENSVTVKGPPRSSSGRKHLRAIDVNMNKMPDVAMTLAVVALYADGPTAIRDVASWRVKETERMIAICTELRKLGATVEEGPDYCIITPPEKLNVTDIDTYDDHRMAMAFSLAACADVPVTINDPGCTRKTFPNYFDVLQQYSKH
T2 sequence (P11043 73-516 G173A/A264T): as above

In the case of `O=C(O)CNCP(=O)(O)O` [glyphosate, N-phosphonomethylglycine], the “vegetative score (scale 0-10, 0 total kill, 10 normal unsprayed plant)” value in experiment [1] (after 14 days) worked out at 2. In addition, the “reproductive score (scale 0-10, 0 total kill, 10 normal unsprayed plant)” value in experiment [1] (after 28 days) turned out to be 0. For the same compound, in experiment [2] (Ki glyphosate / Km PEP), the “Ki /Km ratio” value is reported as 12.6. The Ki for glyphosate in experiment [2] (versus PEP, extract of SR481 cells with pMON8252) turned out to be 683 µM. Also, the “Visual Appearance” value is reported as “growing well” in experiment [3] and “completely dead” in experiment [4]. In addition, the “glyphosate resistance of plant EPSPS” value in experiment [5] is reported as “all eleven exhibited glyphosate resistance”. For the same compound, the “Relative Effect of Glyphosate (0 total kill, 10 no effect)” value in experiment [6] (0.4 pounds/acre (0.448 kg/hectare), day 7, best transformant) stood at 8.0; in experiment [6] (0.4 pounds/acre (0.448 kg/hectare), day 14, best transformant), 8.0; in experiment [6] (0.4 pounds/acre (0.448 kg/hectare), day 28, best transformant), 9.0; in experiment [6] (2.0 pounds/acre (2.242 kg/hectare), day 7, best transformant), 8.0; in experiment [6] (2.0 pounds/acre (2.242 kg/hectare), day 14, best transformant), 8.3; in experiment [6] (2.0 pounds/acre (2.242 kg/hectare), day 28, best transformant), 7.0. The “Relative Effect of Glyphosate (0 total kill, 10 no effect)” value in experiment [6] (3.6 pounds/acre (4.035 kg/hectare), day 7, best transformant) worked out at 5.0; in experiment [6] (3.6 pounds/acre (4.035 kg/hectare), day 14, best transformant), 7.4; in experiment [6] (3.6 pounds/acre (4.035 kg/hectare), day 28, best transformant), 7.0.
